Consider 32 compounds from ChEMBL document CHEMBL3351387, “Bioisosteric replacement of an acylureido moiety attached to an indolin-2-one scaffold with a malonamido or a 2/4-pyridinoylamido moiety produces a selectively potent Aurora-B inhibitor” (Eur J Med Chem, 2014).

In assay [1] the target is T1, Receptor-type tyrosine-protein kinase FLT3 (Homo sapiens, UniProt P36888).
T1 sequence (P36888 whole entry): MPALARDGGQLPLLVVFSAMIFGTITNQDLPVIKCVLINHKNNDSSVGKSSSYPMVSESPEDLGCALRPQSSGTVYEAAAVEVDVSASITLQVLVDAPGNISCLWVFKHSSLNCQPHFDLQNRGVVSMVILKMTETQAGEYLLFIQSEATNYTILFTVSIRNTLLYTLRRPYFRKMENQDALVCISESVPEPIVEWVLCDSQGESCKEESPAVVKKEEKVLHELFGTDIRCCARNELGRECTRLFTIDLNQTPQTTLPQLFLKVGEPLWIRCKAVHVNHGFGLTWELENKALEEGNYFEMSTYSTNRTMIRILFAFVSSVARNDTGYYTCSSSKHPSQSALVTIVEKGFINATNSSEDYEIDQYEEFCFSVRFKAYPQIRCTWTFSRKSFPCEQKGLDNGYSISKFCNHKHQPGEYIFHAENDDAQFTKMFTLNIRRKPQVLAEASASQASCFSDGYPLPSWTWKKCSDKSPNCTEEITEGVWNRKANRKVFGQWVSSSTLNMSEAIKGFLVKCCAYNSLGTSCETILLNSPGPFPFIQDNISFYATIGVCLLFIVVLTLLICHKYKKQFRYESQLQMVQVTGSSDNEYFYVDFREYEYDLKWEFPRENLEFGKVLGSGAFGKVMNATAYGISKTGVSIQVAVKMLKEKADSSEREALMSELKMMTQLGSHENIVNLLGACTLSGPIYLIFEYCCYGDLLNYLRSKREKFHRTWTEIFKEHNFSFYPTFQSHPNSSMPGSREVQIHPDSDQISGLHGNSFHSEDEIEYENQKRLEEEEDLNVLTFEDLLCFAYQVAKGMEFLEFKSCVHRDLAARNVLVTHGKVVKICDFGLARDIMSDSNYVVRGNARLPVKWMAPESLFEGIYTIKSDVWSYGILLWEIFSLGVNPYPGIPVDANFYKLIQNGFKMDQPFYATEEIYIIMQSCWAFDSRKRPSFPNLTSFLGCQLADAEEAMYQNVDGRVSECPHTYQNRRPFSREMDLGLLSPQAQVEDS
The assay is described as follows: Inhibition of Flt3 (unknown origin) using EAIYAAPFAKKK substrate by radioisotope-based P81 filter-binding assay.

Another assay deals with HepG2. The assay is described as follows: Cytotoxicity against human HepG2 cells by SRB assay. The class given is cell-based. (In general: The SRB assay estimates cell density from bound dye.)
Assay [2] has as its target Vascular endothelial growth factor receptor 2 (Homo sapiens, UniProt P35968). Briefly: Inhibition of VEGFR2 (unknown origin) using poly[Glu:Tyr] substrate by radioisotope-based P81 filter-binding assay.
The target of a further assay is T2, Aurora kinase A (Homo sapiens, UniProt O14965).
T2 sequence (O14965 whole entry): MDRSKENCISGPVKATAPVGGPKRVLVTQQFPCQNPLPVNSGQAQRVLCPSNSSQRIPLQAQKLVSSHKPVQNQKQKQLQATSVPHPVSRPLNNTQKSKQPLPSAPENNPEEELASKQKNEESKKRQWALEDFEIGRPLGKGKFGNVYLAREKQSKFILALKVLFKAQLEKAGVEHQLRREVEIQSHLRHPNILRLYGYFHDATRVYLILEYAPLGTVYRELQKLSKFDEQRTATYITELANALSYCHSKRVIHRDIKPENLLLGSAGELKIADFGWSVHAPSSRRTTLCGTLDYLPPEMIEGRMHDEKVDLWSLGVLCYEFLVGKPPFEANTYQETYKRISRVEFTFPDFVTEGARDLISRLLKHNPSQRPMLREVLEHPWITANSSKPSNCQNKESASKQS
The assay is described as follows: Inhibition of Aurora A (unknown origin) using H-LRRASLG substrate by radioisotope-based P81 filter-binding assay.

Assay [3] addresses Platelet-derived growth factor receptor beta (Homo sapiens, UniProt P09619). Briefly: Inhibition of PDGFRbeta (unknown origin) using poly[Glu:Tyr] (4:1) substrate by radioisotope-based P81 filter-binding assay.
The test system of assay [4] is A549. Briefly: Cytotoxicity against human A549 cells by SRB assay. The class given is cell-based.
For assay [5], the target named is Platelet-derived growth factor receptor alpha (Homo sapiens, UniProt P16234). The assay is described as follows: Inhibition of PDGFRalpha (unknown origin) using poly[Glu:Tyr] (4:1) substrate by radioisotope-based P81 filter-binding assay.
The target in the next assay is T3, Aurora kinase C (Homo sapiens, UniProt Q9UQB9).
T3 sequence (Q9UQB9 whole entry): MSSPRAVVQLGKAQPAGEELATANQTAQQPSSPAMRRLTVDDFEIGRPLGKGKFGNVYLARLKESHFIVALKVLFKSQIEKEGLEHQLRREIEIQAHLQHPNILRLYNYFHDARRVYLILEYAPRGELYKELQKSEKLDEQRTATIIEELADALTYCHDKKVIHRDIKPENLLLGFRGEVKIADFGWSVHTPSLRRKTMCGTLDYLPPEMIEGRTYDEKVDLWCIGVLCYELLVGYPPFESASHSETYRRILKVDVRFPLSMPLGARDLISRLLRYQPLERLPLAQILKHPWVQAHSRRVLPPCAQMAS
Briefly: Inhibition of Aurora C (unknown origin) using H-LRRASLG substrate by radioisotope-based P81 filter-binding assay.

For a further assay, the target named is Aurora kinase B (Homo sapiens, UniProt Q96GD4). The assay is described as follows: Inhibition of Aurora B (unknown origin) using H-LRRASLG substrate by radioisotope-based P81 filter-binding assay.
Assay [6] deals with A549. Briefly: Antimigratory activity against human A549 cells assessed as inhibition of cell migration after 8 to 16 hrs by scratch wound model assay.
The subject of assay [7] is A549. Briefly: Anti-invasive activity against human A549 cells assessed as inhibition of cell invasion by transwell invasion assay.

Where only a bound is given, the exact number is not on record here.

Usually IC50 stands for the point on the concentration scale where inhibition reaches its midpoint.

Chain of Aurora kinase B (Q96GD4 whole entry): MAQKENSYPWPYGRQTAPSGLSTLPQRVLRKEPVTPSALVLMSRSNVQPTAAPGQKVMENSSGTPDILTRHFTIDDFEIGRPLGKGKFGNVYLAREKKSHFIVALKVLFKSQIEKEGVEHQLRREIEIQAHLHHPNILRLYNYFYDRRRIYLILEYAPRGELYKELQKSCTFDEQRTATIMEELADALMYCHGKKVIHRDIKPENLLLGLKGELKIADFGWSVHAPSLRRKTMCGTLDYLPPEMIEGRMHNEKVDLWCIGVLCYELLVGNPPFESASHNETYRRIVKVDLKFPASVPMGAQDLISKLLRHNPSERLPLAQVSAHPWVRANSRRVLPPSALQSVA
Chain of Platelet-derived growth factor receptor beta (P09619 whole entry): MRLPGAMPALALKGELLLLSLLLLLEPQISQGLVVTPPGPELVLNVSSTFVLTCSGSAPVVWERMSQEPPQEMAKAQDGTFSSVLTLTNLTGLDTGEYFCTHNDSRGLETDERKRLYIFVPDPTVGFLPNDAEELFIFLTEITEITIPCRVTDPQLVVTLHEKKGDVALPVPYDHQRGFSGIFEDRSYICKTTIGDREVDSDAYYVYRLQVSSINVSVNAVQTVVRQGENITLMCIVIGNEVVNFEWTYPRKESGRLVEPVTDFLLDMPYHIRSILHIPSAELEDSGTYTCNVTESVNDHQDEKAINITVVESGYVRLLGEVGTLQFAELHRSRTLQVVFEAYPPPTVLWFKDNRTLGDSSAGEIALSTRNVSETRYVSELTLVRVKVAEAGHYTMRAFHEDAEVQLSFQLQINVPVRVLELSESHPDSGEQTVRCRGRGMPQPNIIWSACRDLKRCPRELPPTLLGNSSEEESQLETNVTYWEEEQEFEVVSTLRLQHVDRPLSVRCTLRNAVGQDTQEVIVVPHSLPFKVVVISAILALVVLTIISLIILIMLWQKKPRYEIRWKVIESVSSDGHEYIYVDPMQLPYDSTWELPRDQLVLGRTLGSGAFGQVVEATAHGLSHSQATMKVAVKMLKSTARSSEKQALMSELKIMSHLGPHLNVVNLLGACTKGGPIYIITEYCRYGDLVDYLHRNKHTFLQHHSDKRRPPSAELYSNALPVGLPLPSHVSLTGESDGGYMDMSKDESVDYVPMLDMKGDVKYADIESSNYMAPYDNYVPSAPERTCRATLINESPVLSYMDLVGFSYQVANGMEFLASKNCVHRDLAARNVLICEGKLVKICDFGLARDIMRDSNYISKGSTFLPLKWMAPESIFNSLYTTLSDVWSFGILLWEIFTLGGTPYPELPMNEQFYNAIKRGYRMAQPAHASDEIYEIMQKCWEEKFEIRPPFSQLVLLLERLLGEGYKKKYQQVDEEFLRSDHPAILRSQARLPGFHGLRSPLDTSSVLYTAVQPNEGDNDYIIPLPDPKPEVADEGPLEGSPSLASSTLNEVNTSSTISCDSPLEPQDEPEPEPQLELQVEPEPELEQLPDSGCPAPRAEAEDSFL
Chain of Platelet-derived growth factor receptor alpha (P16234 whole entry): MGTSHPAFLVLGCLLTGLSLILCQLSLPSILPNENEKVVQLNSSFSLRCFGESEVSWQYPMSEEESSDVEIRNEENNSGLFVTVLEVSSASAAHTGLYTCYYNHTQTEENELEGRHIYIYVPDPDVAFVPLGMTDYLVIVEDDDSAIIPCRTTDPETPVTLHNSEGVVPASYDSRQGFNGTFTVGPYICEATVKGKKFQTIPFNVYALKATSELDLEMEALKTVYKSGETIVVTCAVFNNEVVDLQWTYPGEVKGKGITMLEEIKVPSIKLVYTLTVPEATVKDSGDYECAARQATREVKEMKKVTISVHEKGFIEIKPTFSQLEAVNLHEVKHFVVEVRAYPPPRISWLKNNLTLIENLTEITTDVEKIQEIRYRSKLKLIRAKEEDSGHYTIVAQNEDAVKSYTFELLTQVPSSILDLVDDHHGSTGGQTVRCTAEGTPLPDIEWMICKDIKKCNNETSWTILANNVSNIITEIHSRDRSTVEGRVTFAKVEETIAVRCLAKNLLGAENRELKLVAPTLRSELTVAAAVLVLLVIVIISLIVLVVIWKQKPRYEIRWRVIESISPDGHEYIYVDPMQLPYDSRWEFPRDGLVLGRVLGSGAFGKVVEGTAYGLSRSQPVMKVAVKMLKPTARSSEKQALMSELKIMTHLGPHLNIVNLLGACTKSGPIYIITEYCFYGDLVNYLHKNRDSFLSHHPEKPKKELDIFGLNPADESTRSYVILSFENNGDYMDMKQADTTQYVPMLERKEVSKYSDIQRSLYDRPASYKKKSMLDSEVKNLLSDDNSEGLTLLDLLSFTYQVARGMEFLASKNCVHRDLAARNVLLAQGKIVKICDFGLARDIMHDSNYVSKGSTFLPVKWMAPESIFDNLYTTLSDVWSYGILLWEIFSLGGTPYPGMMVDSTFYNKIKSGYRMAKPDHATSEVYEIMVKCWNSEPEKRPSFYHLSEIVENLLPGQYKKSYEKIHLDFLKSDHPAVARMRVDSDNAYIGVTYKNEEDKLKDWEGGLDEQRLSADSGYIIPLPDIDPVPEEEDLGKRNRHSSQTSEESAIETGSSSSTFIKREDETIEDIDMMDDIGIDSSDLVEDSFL
Chain of Vascular endothelial growth factor receptor 2 (P35968 whole entry): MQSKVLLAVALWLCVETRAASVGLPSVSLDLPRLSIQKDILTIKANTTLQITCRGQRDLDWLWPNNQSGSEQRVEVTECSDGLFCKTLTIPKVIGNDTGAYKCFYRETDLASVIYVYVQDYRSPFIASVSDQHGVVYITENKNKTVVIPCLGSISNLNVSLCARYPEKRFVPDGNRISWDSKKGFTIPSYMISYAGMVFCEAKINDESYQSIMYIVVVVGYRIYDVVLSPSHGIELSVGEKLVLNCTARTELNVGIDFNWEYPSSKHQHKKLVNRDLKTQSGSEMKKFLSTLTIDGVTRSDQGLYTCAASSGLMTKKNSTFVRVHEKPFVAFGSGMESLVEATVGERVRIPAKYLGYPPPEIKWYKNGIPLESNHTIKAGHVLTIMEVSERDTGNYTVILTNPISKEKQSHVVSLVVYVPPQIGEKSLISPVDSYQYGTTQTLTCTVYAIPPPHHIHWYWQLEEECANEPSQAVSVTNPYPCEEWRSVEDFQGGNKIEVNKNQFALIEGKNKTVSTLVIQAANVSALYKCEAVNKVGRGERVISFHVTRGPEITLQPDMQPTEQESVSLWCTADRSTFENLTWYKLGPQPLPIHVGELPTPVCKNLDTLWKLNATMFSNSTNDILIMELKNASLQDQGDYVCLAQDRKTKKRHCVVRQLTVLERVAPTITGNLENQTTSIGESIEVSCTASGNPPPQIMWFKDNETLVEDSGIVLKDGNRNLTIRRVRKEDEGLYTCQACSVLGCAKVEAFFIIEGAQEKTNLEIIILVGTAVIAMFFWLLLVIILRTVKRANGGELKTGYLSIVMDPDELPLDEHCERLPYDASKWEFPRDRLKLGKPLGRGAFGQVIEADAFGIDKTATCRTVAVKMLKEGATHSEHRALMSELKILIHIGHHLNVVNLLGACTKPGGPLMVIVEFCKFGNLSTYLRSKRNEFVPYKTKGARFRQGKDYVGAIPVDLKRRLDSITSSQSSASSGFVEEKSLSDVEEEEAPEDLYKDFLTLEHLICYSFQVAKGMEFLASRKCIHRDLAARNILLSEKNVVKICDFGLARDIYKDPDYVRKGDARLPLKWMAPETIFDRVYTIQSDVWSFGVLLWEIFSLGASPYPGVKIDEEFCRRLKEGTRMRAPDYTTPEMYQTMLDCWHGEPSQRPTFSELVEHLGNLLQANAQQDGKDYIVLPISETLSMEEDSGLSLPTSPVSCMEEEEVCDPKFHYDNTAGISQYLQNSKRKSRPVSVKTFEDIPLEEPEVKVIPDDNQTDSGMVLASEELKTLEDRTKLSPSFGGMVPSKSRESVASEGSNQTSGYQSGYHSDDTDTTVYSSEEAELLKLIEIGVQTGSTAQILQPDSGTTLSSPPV

In the case of `O=C(CC(=O)Nc1ccc2c(c1)NC(=O)/C2=C\c1ccc[nH]1)Nc1ccc(F)cc1`, the IC50 in assay [1] came out at 0.011 µM; in the assay on HepG2 it was 1.8 µM; in assay [2] it was 1.77 µM; at Aurora kinase A it was 0.552 µM; in assay [3], 0.0869 µM; in the assay on A549 [4] it was 0.7 µM. The IC50 in [5] is 0.0072 µM; at Aurora kinase C it was 0.0672 µM.
For `COc1ccc(NC(=O)CC(=O)Nc2ccc3c(c2)NC(=O)/C3=C\c2ccc[nH]2)cc1`, the IC50 worked out at 0.0166 µM in assay [1], 2.8 µM with HepG2, 0.177 µM in assay [3] and 3.8 µM in the assay with A549 [4].
With `O=C1Nc2cc(NC(=O)C3(C(=O)Nc4ccc(F)cc4)CC3)ccc2/C1=C/c1ccc[nH]1`, the IC50 in the assay with HepG2 is 1 µM; at Aurora kinase B it was 0.253 µM; in the assay with A549 [4], 0.9 µM.
On to `COc1ccc(NC(=O)C2(C(=O)Nc3ccc4c(c3)NC(=O)/C4=C\c3ccc[nH]3)CC2)cc1`, for which the results for the half-maximal inhibitory concentration (IC50) in the assay with HepG2 and with A549 [4] were 3.9 µM and 5.9 µM, respectively.
Take `O=C1Nc2cccc(NC(=O)c3cccn(-c4ccc(F)cc4)c3=O)c2/C1=C/c1ccc[nH]1`: the figures for the concentration for half-maximal inhibition (IC50) with HepG2 and in the assay on A549 [4] were 4.6 µM and 4.8 µM, respectively.
Regarding `O=C1Nc2ccc(NC(=O)c3cccn(-c4ccc(F)cc4)c3=O)cc2/C1=C/c1ccc[nH]1`, the concentration for half-maximal inhibition (IC50) in the assay on HepG2 and in the assay with A549 [4] was 5.4 µM in each case.
As for `O=C1Nc2c(NC(=O)c3cccn(-c4ccc(F)cc4)c3=O)cccc2/C1=C/c1ccc[nH]1`, the half-inhibitory concentration (IC50) stood at 3.9 µM in the assay on HepG2 and 4.5 µM with A549 [4].
Take `O=C1Nc2cc(NC(=O)c3cccn(-c4ccc(F)cc4)c3=O)ccc2/C1=C/c1ccc[nH]1`: the IC50 with A549 [6] was 7.3 µM; in the assay on HepG2 it was 0.9 µM; with A549 [4] it was 0.7 µM; with A549 [7] it was greater than 10 µM.
With `COc1ccc(-n2cccc(C(=O)Nc3ccc4c(c3)NC(=O)/C4=C\c3ccc[nH]3)c2=O)cc1`, the IC50 was determined as 5.6 µM in the assay on HepG2 and 3.3 µM with A549 [4].
`O=C1Nc2cc(NC(=O)c3cccn(-c4ccccc4)c3=O)ccc2/C1=C/c1ccc[nH]1`: the IC50 in the assay with HepG2 was 5.8 µM; with A549 [4], 4.7 µM.
Take `Cc1ccc(-n2cccc(C(=O)Nc3ccc4c(c3)NC(=O)/C4=C\c3ccc[nH]3)c2=O)cc1`: the IC50 worked out at 4.2 µM with HepG2 and 1.6 µM in the assay with A549 [4].
In the case of `O=C1Nc2cc(NC(=O)c3cccn(-c4ccc(Cl)cc4)c3=O)ccc2/C1=C/c1ccc[nH]1`, the IC50 in the assay with HepG2 was 6.7 µM; in the assay with A549 [4], 4.9 µM.
For `O=C1Nc2cc(NC(=O)c3cccn(-c4ccc(C(F)(F)F)cc4)c3=O)ccc2/C1=C/c1ccc[nH]1` the same measures were 3.1 µM and 3.7 µM.
With `O=C1Nc2cc(NC(=O)c3cccn(-c4cccc(Cl)c4)c3=O)ccc2/C1=C/c1ccc[nH]1`, the IC50 in the assay with HepG2 came out at 4.9 µM; in the assay with A549 [4], 1.5 µM.
With `Cn1cccc(C(=O)Nc2ccc3c(c2)NC(=O)/C3=C\c2ccc[nH]2)c1=O`, the half-inhibitory concentration (IC50) in the assay on HepG2 turned out to be 7 µM; in the assay on A549 [4], 5.9 µM.
Turning to `O=C1Nc2cc(NC(=O)c3cccn(CCO)c3=O)ccc2/C1=C/c1ccc[nH]1`, the values for the IC50 in the assay with HepG2 and with A549 [4] were 3.9 µM and 4.5 µM, respectively.
As for `Cc1[nH]c(/C=C2\C(=O)Nc3cc(NC(=O)c4cccn(-c5ccc(F)cc5)c4=O)ccc32)c(C)c1C(=O)O`, the IC50 in the assay on A549 [6] is 7.9 µM; in the assay with HepG2, 6.1 µM; in the assay with A549 [4], 6.3 µM; in the assay with A549 [7] it was greater than 10 µM.
For the compound `Cc1[nH]c(/C=C2\C(=O)Nc3cc(NC(=O)c4cccn(C)c4=O)ccc32)c(C)c1C(=O)O`, the IC50 in the assay on HepG2 turned out to be 8.1 µM; in the assay with A549 [4], 6.6 µM.
In the case of `O=C1Nc2cc(NC(=O)c3c[nH]cc(-c4ccc(F)cc4)c3=O)ccc2/C1=C/c1ccc[nH]1`, the IC50 was 6.6 µM in the assay on A549 [6], 1.4 µM in the assay with HepG2, 0.5 µM in the assay on A549 [4] and 7.8 µM in the assay with A549 [7].
Consider `COc1ccc(-c2c[nH]cc(C(=O)Nc3ccc4c(c3)NC(=O)/C4=C\c3ccc[nH]3)c2=O)cc1`, for which the IC50 turned out to be 0.8 µM in the assay on HepG2 and 0.6 µM in the assay with A549 [4].
As to `O=C1Nc2cc(NC(=O)c3c[nH]cc(-c4ccccc4)c3=O)ccc2/C1=C/c1ccc[nH]1`, the IC50 came out at 1.1 µM in the assay with HepG2, 0.0331 µM at Aurora kinase B and 0.5 µM in the assay on A549 [4].
For the compound `Cc1ccc(-c2c[nH]cc(C(=O)Nc3ccc4c(c3)NC(=O)/C4=C\c3ccc[nH]3)c2=O)cc1`, the IC50 came to 0.7 µM in the assay on HepG2 and 0.5 µM with A549 [4].
`O=C1Nc2cc(NC(=O)c3c[nH]cc(-c4ccc(Cl)cc4)c3=O)ccc2/C1=C/c1ccc[nH]1`: the 50% inhibitory concentration (IC50) in the assay with HepG2 is 0.7 µM; in the assay with A549 [4], less than 0.1 µM.
In the case of `O=C1Nc2cc(NC(=O)c3c[nH]cc(-c4ccc(C(F)(F)F)cc4)c3=O)ccc2/C1=C/c1ccc[nH]1`, the IC50 in the assay on HepG2 is 0.7 µM; in the assay with A549 [4], 0.5 µM.
Turning to `O=C1Nc2cc(NC(=O)c3c[nH]cc(-c4cccc(Cl)c4)c3=O)ccc2/C1=C/c1ccc[nH]1`, the IC50 in the assay with HepG2 was found to be 0.6 µM; with A549 [4], 0.5 µM.
For `Cc1c[nH]cc(C(=O)Nc2ccc3c(c2)NC(=O)/C3=C\c2ccc[nH]2)c1=O`, the IC50 in the assay on HepG2 amounted to 3.1 µM; in the assay with A549 [4], 5.5 µM.
As to `COc1ccc(-c2c[nH]cc(C(=O)Nc3ccc4c(c3)NC(=O)/C4=C\c3[nH]c(C)c(C(=O)O)c3C)c2=O)cc1`, the IC50 with HepG2 and in the assay on A549 [4] was greater than 10 µM throughout.
Turning to `Cc1[nH]c(/C=C2\C(=O)Nc3cc(NC(=O)c4c[nH]cc(-c5ccc(F)cc5)c4=O)ccc32)c(C)c1C(=O)N1CCN(C)CC1`, the 50% inhibitory concentration (IC50) is 0.7 µM in the assay with HepG2 and 0.6 µM in the assay on A549 [4].
The corresponding values for `Cc1[nH]c(/C=C2\C(=O)Nc3cc(NC(=O)c4c[nH]cc(-c5ccc(F)cc5)c4=O)ccc32)c(C)c1CC(=O)N1CCN(C)CC1` are 0.7 µM and 0.6 µM.
Turning to `Cc1[nH]c(/C=C2\C(=O)Nc3cc(NC(=O)c4c[nH]cc(-c5ccc(F)cc5)c4=O)ccc32)c(C)c1C(=O)N1CCOCC1`, the IC50 in the assay on HepG2 worked out at 6.7 µM; in the assay on A549 [4], 5.8 µM.
For `Cc1[nH]c(/C=C2\C(=O)Nc3cc(NC(=O)c4c[nH]cc(-c5ccc(F)cc5)c4=O)ccc32)c(C)c1CC(=O)N1CCOCC1` the same measures were 6.7 µM and 5.2 µM.
As to `CCN(CCO)CCCOc1ccc2c(Nc3cc(CC(=O)Nc4cccc(F)c4)[nH]n3)ncnc2c1` [DEFOSBARASERTIB], the IC50 with A549 [6] was 8.3 µM; in the assay with HepG2, 0.1 µM; with A549 [4], 0.1 µM; in the assay on A549 [7] it was 5.4 µM.
